Experimental findings from ChEMBL document CHEMBL6114961, “Novel isoxazole thiophene-containing compounds active against Mycobacterium tuberculosis” (Bioorg Med Chem Lett, 2025) are described below.

For series [1], the system named is Mycobacterium tuberculosis. Kind of series: Antituberculosis activity against Mycobacterium tuberculosis H37Rv infected in human THP-1 cells assessed as reduction in bacterial growth pre-infected with bacteria for 24 hrs followed by compound addition and measured 3 days by luminescence based intramacrophage assay. The format is functional, organism-based.
A further series concerns HepG2. Kind of series: Cytotoxicity against human HepG2 cells measured after 3 days by Cell Titer-Glo Luminescent Cell Viability Assay. In kind it is functional. Conditions: HepG2, 72 h, time 3 day. A general note: In ATP-based viability assays light output follows the ATP content of the culture.
Series [2] concerns Mycobacterium tuberculosis. The experiment in a line: Antituberculosis activity against Mycobacterium tuberculosis H37Rv assessed as reduction in bacterial growth measured after 7 days using 7H9 broth by Alamar blue staining based analysis. The format is functional. The following applies: 168 h, time 7 day. (In general: The colour change of resazurin is a common sign of viable cells or microbes.)

Series [3] can be described thus: Selectivity index, ratio of CC50 for Cytotoxicity against human HepG2 cells to MIC for antituberculosis activity against Mycobacterium tuberculosis H37Rv assessed as reduction in bacterial growth. In kind it is toxicity, cell-based, Hep G2. The following applies: read-out: Selectivity Index.
The nature of series [4]: Metabolic stability in mouse liver microsomes assessed as intrinsic clearance. In kind it is ADME, Microsome. The following applies: read-out: CLH. On the technique in general: Liver microsomes are a subcellular fraction often used to study metabolism.
The nature of series [5]: Plasma protein binding in mouse assessed as unbound fraction. The format is ADME, cell-free.
Series [6] in a line: Apparent permeability in human Caco-2 cells across apical to basolateral side. The format is ADME, cell-based.
A short description of series [7]: Apparent permeability in human Caco-2 cells across basolateral side to apical side. In kind it is ADME, cell-based.
The target in another series is Cytochrome P450 3A4 (Homo sapiens, UniProt P08684). Kind of series: Inhibition of CYP3A4 (unknown origin). The format is ADME.
Sequence of Cytochrome P450 3A4 (P08684 whole entry): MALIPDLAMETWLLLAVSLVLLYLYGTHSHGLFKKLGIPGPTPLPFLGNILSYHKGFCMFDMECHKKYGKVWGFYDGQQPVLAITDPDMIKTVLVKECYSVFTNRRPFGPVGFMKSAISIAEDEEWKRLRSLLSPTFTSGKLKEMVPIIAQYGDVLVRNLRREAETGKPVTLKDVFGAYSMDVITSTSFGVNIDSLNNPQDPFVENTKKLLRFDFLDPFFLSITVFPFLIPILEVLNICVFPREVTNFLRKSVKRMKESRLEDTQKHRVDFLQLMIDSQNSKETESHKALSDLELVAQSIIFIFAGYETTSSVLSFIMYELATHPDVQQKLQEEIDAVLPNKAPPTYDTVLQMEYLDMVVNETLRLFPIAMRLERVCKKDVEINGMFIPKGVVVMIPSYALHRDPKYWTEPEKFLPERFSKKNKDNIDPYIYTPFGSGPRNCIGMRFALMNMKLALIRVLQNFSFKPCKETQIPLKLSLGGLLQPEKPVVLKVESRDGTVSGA
The next series has as its target T1, Cytochrome P450 1A2 (Homo sapiens, UniProt P05177).
T1 sequence (P05177 whole entry): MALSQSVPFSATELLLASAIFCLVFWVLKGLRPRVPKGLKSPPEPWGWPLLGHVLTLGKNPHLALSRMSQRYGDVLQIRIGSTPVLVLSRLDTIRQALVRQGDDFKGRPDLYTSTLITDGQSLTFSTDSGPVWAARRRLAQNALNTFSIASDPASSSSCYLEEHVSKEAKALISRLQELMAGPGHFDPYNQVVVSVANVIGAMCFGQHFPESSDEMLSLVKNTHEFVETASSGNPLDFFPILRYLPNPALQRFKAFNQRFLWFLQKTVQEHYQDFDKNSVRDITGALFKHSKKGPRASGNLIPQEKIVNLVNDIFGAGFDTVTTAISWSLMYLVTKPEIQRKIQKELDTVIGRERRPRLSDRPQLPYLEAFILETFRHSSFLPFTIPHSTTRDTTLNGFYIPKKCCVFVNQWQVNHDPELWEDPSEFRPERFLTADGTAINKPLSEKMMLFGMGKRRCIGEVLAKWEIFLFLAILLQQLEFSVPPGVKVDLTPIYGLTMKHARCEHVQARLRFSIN
The experiment in a line: Inhibition of CYP1A2 (unknown origin). The format is ADME.

Another series addresses Cytochrome P450 2D6 (Homo sapiens, UniProt P10635). Kind of series: Inhibition of CYP2D6 (unknown origin). The format is ADME.
For another series, the target named is Cytochrome P450 2C19 (Homo sapiens, UniProt P33261). Kind of series: Inhibition of CYP2C19 (unknown origin). In kind it is ADME.
Sequence of Cytochrome P450 2C19 (P33261 whole entry): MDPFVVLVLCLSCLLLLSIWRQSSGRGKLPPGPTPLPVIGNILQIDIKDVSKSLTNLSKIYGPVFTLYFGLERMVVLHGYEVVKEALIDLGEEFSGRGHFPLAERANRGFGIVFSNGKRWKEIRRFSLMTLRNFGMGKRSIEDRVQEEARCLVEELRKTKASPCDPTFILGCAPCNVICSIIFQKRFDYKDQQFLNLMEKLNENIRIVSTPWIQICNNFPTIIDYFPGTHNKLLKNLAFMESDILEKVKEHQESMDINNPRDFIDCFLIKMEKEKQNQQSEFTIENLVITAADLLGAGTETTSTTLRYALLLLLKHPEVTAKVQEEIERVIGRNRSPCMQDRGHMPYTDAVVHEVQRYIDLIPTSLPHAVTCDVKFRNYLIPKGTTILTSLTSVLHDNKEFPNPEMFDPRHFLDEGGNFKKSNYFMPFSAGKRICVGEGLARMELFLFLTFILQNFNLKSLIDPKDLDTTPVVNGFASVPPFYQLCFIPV
A further series addresses Cytochrome P450 2C9 (Homo sapiens, UniProt P11712). Kind of series: Inhibition of CYP2C9 (unknown origin). The format is ADME.
For series [8], the target named is Voltage-gated inwardly rectifying potassium channel KCNH2 (Homo sapiens, UniProt Q12809). Kind of series: Inhibition of human ERG. The format is toxicity.
Sequence of Voltage-gated inwardly rectifying potassium channel KCNH2 (Q12809 whole entry): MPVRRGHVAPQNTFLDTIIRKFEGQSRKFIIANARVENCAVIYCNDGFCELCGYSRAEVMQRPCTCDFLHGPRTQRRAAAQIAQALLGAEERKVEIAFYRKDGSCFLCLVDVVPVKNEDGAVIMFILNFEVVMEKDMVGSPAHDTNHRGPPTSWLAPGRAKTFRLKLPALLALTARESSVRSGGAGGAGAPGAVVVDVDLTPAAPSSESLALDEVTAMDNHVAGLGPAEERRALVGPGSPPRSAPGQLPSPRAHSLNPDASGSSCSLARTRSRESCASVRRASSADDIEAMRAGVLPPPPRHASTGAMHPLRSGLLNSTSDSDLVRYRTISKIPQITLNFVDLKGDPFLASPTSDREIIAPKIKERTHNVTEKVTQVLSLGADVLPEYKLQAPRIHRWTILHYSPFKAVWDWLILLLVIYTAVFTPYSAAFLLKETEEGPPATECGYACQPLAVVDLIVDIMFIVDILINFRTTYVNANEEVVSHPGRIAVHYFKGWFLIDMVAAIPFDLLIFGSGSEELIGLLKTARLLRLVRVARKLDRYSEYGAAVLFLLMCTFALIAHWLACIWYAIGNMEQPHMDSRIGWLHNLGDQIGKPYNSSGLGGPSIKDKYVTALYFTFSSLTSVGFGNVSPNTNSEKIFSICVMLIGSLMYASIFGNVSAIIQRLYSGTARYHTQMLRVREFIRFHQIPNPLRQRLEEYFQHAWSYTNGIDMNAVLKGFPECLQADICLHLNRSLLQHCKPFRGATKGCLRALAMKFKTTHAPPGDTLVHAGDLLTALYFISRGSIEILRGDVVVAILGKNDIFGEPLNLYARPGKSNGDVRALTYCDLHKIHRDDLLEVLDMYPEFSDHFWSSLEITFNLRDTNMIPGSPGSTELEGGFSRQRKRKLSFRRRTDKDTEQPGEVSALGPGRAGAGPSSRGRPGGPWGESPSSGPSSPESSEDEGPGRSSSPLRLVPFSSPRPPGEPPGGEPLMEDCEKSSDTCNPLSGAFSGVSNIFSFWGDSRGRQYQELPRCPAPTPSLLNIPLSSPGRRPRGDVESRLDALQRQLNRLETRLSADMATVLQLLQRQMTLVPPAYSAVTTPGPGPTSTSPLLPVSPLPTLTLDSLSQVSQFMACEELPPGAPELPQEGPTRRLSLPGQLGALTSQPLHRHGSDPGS
Series [9] can be described thus: Cmax in male CD-1 mouse at 20 mg/kg, po. The format is ADME, organism-based. Conditions: in vivo.
The nature of series [10]: Tmax in male CD-1 mouse at 20 mg/kg, po. In kind it is ADME, organism-based. The following applies: in vivo.
Series [11] can be described thus: Half life in male CD-1 mouse at 20 mg/kg, po. The following applies: in vivo. The format is ADME, organism-based.
A short description of series [12]: MRT (0 tot 24 hrs) in male CD-1 mouse at 20 mg/kg, po. The format is ADME, organism-based. Conditions: in vivo.
A short description of series [13]: AUC (0 tot 24 hrs) in male CD-1 mouse at 20 mg/kg, po. In kind it is ADME, organism-based. Conditions: in vivo.
Series [14] is described as follows: Oral bioavailability in male CD-1 mouse at 20 mg/kg. In kind it is ADME, organism-based. The following applies: in vivo.
Series [15] can be described thus: AUC (0 tot 24 hrs) in male CD-1 mouse at 3 mg/kg, iv. In kind it is ADME, organism-based. The following applies: in vivo.
The nature of series [16]: Plasma concentration in male CD-1 mouse at 20 mg/kg, po measured for 14 hrs. The format is ADME, organism-based.
The subject of series [17] is Mycobacterium tuberculosis. Kind of series: Bactericidal activity against non-replicating Mycobacterium tuberculosis Hu-Coates model assessed as reduction in CFU at 20 uM. In kind it is functional.
Series [18] has as its system Mycobacterium tuberculosis. Kind of series: Bactericidal activity against non-replicating Mycobacterium tuberculosis Hu-Coates model assessed as reduction in CFU at 20 uM in presence of BPaL. In kind it is functional.
A short description of series [19]: Plasma concentration in male CD-1 mouse at 20 mg/kg, po measured for 6 hrs. The format is ADME, organism-based.

The structures appear in SMILES notation. ≈ marks a conversion by molar mass, not a printed value. Some results are limits rather than exact numbers.

Sequence of Cytochrome P450 2C9 (P11712 whole entry): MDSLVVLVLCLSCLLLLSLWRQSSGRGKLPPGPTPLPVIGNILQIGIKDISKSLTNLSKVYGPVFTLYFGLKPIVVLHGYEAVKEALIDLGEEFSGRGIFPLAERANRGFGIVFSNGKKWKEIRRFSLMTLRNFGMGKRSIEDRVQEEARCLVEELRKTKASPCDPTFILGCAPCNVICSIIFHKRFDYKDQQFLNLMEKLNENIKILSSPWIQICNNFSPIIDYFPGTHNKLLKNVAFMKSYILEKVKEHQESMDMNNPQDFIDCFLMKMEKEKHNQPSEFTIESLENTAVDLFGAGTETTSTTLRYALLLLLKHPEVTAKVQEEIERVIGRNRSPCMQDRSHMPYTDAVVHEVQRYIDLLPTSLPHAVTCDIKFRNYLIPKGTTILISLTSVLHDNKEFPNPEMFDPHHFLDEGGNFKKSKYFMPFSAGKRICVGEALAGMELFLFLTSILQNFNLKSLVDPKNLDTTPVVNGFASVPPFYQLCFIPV
Sequence of Cytochrome P450 2D6 (P10635 whole entry): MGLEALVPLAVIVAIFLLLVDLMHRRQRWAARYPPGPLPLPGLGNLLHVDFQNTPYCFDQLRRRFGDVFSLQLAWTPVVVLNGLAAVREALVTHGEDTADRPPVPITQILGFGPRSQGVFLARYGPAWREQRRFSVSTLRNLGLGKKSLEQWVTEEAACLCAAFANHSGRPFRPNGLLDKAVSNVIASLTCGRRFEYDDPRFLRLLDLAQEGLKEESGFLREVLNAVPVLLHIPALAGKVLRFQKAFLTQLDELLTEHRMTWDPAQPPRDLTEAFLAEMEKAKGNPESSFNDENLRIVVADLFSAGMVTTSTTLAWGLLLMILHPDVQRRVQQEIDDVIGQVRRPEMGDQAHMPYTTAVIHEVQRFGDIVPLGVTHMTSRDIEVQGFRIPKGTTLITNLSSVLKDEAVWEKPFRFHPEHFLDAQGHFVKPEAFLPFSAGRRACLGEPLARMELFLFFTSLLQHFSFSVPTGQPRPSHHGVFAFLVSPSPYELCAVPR

One may read the EC50 as the midpoint of the concentration-response curve. As usually defined, the CC50 is the concentration that lowers cell viability or growth by half. Read a low CC50 as greater toxicity to the cells. For the compound `O=S(=O)(Nc1cc(-c2ccsc2)no1)C1CCOC1` (stereo unspecified), the EC50 in series [1] was > 25 µM. The CC50 in the series with HepG2 was > 40 µM.
The matching figures for `O=S(=O)(Nc1cc(-c2ccsc2)no1)c1c(F)cccc1F`: 13.9 µM and > 40 µM.
The corresponding values for `O=S(=O)(Nc1cc(-c2csc(C(F)(F)F)c2)no1)c1ccccc1F` are > 25 µM and > 40 µM.
The matching figures for `O=S(=O)(Nc1cc(-c2ccsc2)no1)c1cccc(F)c1`: 24.4 µM and > 40 µM.
Regarding `Cc1cc(-c2cc(NS(=O)(=O)c3ccccc3F)on2)c(C)s1`, the EC50 in series [1] was 24.8 µM. The CC50 in the series on HepG2 was > 40 µM.
Turning to `CN(c1cc(-c2ccsc2)no1)S(=O)(=O)c1ccccc1F`, the EC50 in [1] stood at 12.6 µM. For the same compound, in the series on HepG2, the CC50 was > 40 µM.
The corresponding values for `O=S(=O)(Nc1cc(-c2ccsc2)no1)c1ccc2c(c1)CC2` are 3.65 µM and > 40 µM.
The corresponding values for `O=S(=O)(Nc1cc(-c2ccsc2)no1)c1ccccc1` are > 25 µM and > 40 µM.
Consider `O=S(=O)(Nc1cc(-c2ccsc2)no1)c1cccc(F)c1F`, for which, in series [1], the EC50 was > 25 µM. Moreover, the CC50 with HepG2 is > 40 µM.
Turning to `CC1(C)COCCC1S(=O)(=O)Nc1cc(-c2ccsc2)no1` (stereo unspecified), the EC50 in series [1] was > 25 µM. The CC50 with HepG2 is > 40 µM.
The matching figures for `O=S(=O)(Nc1cc(-c2ccsc2)no1)c1ccccc1Cl`: 14.8 µM and > 40 µM.
Turning to `O=S(=O)(Nc1cc(-c2ccsc2)no1)c1cc(F)ccc1F`, in series [1], the EC50 is > 25 µM. In addition, the CC50 with HepG2 is > 40 µM.
The corresponding values for `O=S(=O)(Nc1cc(-c2ccsc2)no1)c1ccc(F)cc1F` are 24.9 µM and > 40 µM.
On to `O=S(=O)(Nc1cc(-c2ccsc2)no1)C1CCC(F)(F)CC1`, for which the EC50 in series [1] was > 25 µM. The CC50 in the series on HepG2 is > 40 µM.
Turning to `O=S(=O)(Nc1cc(-c2ccsc2)no1)c1ccc2c(c1)CCC2`, the EC50 in [1] was 24.9 µM. The CC50 in the series on HepG2 is > 40 µM.
The matching figures for `O=S(=O)(CC1CCOCC1)Nc1cc(-c2ccsc2)no1`: > 25 µM and > 40 µM.
Turning to `O=S(=O)(Nc1noc(-c2ccsc2)n1)C1CCOCC1`, in series [1], the 50% effective concentration (EC50) is > 25 µM.
`O=S(=O)(Nc1cc(-c2ccsc2)no1)C1CCCCC1`: the EC50 in [1] stood at 24.9 µM. In the series on HepG2, the CC50 is > 40 µM.
Take `O=C(Nc1cc(-c2ccsc2)no1)c1ccccc1F`: the EC50 in series [1] stood at 22.8 µM. The CC50 with HepG2 was > 40 µM.
The corresponding values for `O=S(=O)(Nc1cc(-c2ccsc2)no1)c1cccnc1F` are > 25 µM and > 40 µM.
The corresponding values for `O=S(=O)(Nc1cc(-c2cscn2)no1)C1CCOCC1` are > 25 µM and > 40 µM.
On to `O=S(=O)(Nc1cc(-c2ccoc2)no1)C1CCOCC1`, for which the EC50 in [1] is > 25 µM. Further, the CC50 in the series with HepG2 is > 40 µM.
The corresponding values for `O=S(=O)(Nc1cc(-c2ccsn2)no1)C1CCOCC1` are > 25 µM and > 25 µM.
By MIC90 is commonly meant the lowest concentration that inhibits either 90% of growth or 90% of the strains tested, depending on the study. What is called fraction unbound is free concentration divided by total concentration. The term Papp A→B denotes how fast a substance crosses the layer from the apical side. The term Papp B→A denotes how fast a substance crosses the layer from the basolateral side. For orientation: IC50 means the point on the concentration scale where inhibition reaches its midpoint. Low values mean greater potency, high ones weaker potency. As a reminder, the Cmax is the maximum level reached in the sampled fluid or tissue. Usually Tmax stands for the time from dosing to the highest level. For orientation: half-life means the time needed for the level to fall by half in the phase considered. The term MRT last denotes the average time that molecules of a dose stay in the body. Usually AUC(0-t) stands for the area under the concentration-time curve up to a stated or last time point. A lower AUC(0-t) goes with less exposure. As a reminder, the bioavailability is dose-corrected exposure relative to a reference, in per cent. As a reminder, the AUC is concentration integrated over time. A higher AUC goes with more exposure. With `O=S(=O)(Nc1cc(-c2ccsc2)no1)c1ccccc1F`, in series [1], the EC50 came out at 2.93 µM. Further, the cytotoxic concentration (CC50) in the series on HepG2 is > 40 µM. The MIC90 in series [2] turned out to be 1.24 µM (≈ 0.402 µg/mL). The selectivity ratio in series [3] was > 32. The microsomal CLint in series [4] came to 5.6 µL/min/mg. In addition, the fraction unbound in series [5] was found to be 0.996. The Papp A→B in [6] came to 3.6 ×10⁻⁶ cm/s. In series [7], the Papp B→A stood at 27.3 ×10⁻⁶ cm/s. Besides, the IC50 against Cytochrome P450 3A4 was > 50 µM; against Cytochrome P450 1A2 it was > 50 µM; against Cytochrome P450 2D6, > 50 µM; at Cytochrome P450 2C19, 28.2 µM; on Cytochrome P450 2C9, 3.2 µM; in [8], > 30 µM. This compound displayed a Cmax in series [9] of 64200 ng/mL. In addition, in [10], the Tmax was determined as 0.67 h. In addition, the half-life in [11] is 1.83 h. In series [12], this compound returned an MRT last at 24 h of 3.44 h. This compound also showed an AUC(0-t) at 24 h in series [13] of 4450 ng·h/mL. The bioavailability in [14] was found to be 78%. In [15], the AUC worked out at 50981 ng·min/mL. The concentration at 14 h in series [16] came out at 949 ng/mL. For the same compound, the Activity is on record as 1.02 log10CFU in [17] and 3 log10CFU in series [18].
On to `O=S(=O)(Nc1cc(-c2csc(Cl)c2)no1)C1CCOCC1`, for which the half-maximal effective concentration (EC50) in series [1] is > 25 µM. Also, in the series with HepG2, the CC50 is > 40 µM.
The corresponding values for `O=S(=O)(Nc1cc(-c2ccsc2)no1)C1CCNCC1` are > 25 µM and > 40 µM.
The corresponding values for `O=S(=O)(Nc1cc(-c2cccnc2)no1)c1ccccc1F` are 24.8 µM and > 40 µM.
Turning to `O=S(=O)(Nc1cc(-c2ccsc2)no1)c1c(F)cc(F)cc1F`, in [1], the EC50 is > 25 µM. For the same compound, the CC50 in the series with HepG2 was > 40 µM.
The matching figures for `O=S(=O)(Nc1cc(-c2cccs2)no1)C1CCOCC1`: > 25 µM and > 40 µM.
For `O=S(=O)(Nc1cc(-c2ccsc2)no1)C1CCOCC1`, the EC50 in [1] was determined as 1.96 µM. Besides, the CC50 with HepG2 is > 40 µM. In series [4], the microsomal CLint is 0.2 µL/min/mg. Moreover, the fraction unbound in series [5] worked out at 0.845. This compound also displayed a Cmax in series [9] of 24200 ng/mL. The Tmax in [10] amounted to 0.67 h. In [11], this compound had a half-life of 2.19 h. This compound returned an MRT last at 24 h in series [12] of 1.7 h. The compound also showed an AUC(0-t) at 24 h in [13] of 713 ng·h/mL. The compound further registered a bioavailability in series [14] of 58%. In series [15], this compound showed an AUC of 11076 ng·min/mL. The compound further came in with a concentration at 6 h in [19] of 613 ng/mL.
